# Data from publication PMC10408569, “Recruitment of hexahydroquinoline as anticancer scaffold targeting inhibition of wild and mutants EGFR (EGFR^WT, EGFR^T790M, and EGFR^L858R)” (Journal of Enzyme Inhibition and Medicinal Chemistry, 2023).
# Assays:
# [1] = system: SK-MEL-2; experiment: NCI-60 anticancer screening (SRB); format: cell-based; settings: Homo sapiens; SK-MEL-2, melanoma; one dose 10 μM; read-out: Growth Inhibition Percentage (GI %)
# [2] = system: NCI-H522; experiment: NCI-60 anticancer screening (SRB); format: cell-based; settings: Homo sapiens; NCI-H522, NSC lung cancer; one dose 10 μM; read-out: Growth Inhibition Percentage (GI %)
# [3] = system: HOP-62; experiment: NCI-60 anticancer screening (SRB); format: cell-based; settings: Homo sapiens; HOP-62, NSC lung cancer; one dose 10 μM; read-out: Growth Inhibition Percentage (GI %)
# [4] = system: 786-0; experiment: NCI-60 anticancer screening (SRB); format: cell-based; settings: Homo sapiens; 786-0, renal cancer; one dose 10 μM; read-out: Growth Inhibition Percentage (GI %)
# [5] = system: U251; experiment: NCI-60 anticancer screening (SRB); format: cell-based; settings: Homo sapiens, U-251; U251, CNS cancer; one dose 10 μM; read-out: Growth Inhibition Percentage (GI %)
# [6] = system: NCI/ADR-RES; experiment: NCI-60 anticancer screening (SRB); format: cell-based; settings: Homo sapiens, ovarian cancer, one dose 10 μM, read-out: Growth Inhibition Percentage (GI %)
# [7] = system: SNB-75; experiment: NCI-60 anticancer screening (SRB); format: cell-based; settings: Homo sapiens; SNB-75, CNS cancer; one dose 10 μM; read-out: Growth Inhibition Percentage (GI %)
# [8] = system: MDA-MB-468; experiment: NCI-60 anticancer screening (SRB); format: cell-based; settings: Homo sapiens; MDA-MB-468, breast cancer; one dose 10 μM; read-out: Growth Inhibition Percentage (GI %)
# [9] = system: BT-549; experiment: NCI-60 anticancer screening (SRB); format: cell-based; settings: Homo sapiens; BT-549, breast cancer; one dose 10 μM; read-out: Growth Inhibition Percentage (GI %)
# [10] = system: COLO 205; experiment: NCI-60 anticancer screening (SRB); format: cell-based; settings: Homo sapiens; COLO 205, colon cancer; one dose 10 μM; read-out: Growth Inhibition Percentage (GI %)
# [11] = system: IGROV1; experiment: NCI-60 anticancer screening (SRB); format: cell-based; settings: Homo sapiens, IGROV-1; IGROV1, ovarian cancer; one dose 10 μM; read-out: Growth Inhibition Percentage (GI %)
# [12] = system: KM 12; experiment: NCI-60 anticancer screening (SRB); format: cell-based; settings: Homo sapiens, KM12; KM 12, colon cancer; one dose 10 μM; read-out: Growth Inhibition Percentage (GI %)
# [13] = system: A549/ATCC; experiment: NCI-60 anticancer screening (SRB); format: cell-based; settings: Homo sapiens; A549/ATCC, NSC lung cancer; one dose 10 μM; read-out: Growth Inhibition Percentage (GI %)
# [14] = system: OVCAR-3; experiment: NCI-60 anticancer screening (SRB); format: cell-based; settings: Homo sapiens; OVCAR-3, ovarian cancer; one dose 10 μM; read-out: Growth Inhibition Percentage (GI %)
# [15] = system: UACC-257; experiment: NCI-60 anticancer screening (SRB); format: cell-based; settings: Homo sapiens; UACC-257, melanoma; one dose 10 μM; read-out: Growth Inhibition Percentage (GI %)
# [16] = system: OVCAR-8; experiment: NCI-60 anticancer screening (SRB); format: cell-based; settings: Homo sapiens; OVCAR-8, ovarian cancer; one dose 10 μM; read-out: Growth Inhibition Percentage (GI %)
# [17] = system: NCI 60 cancer cell lines; experiment: NCI-60 anticancer screening (SRB), whole panel; format: cell-based, human; settings: mean across the NCI-60 panel; one dose 10 μM
# [18] = system: NCI-H226; experiment: NCI-60 anticancer screening (SRB); format: cell-based; settings: Homo sapiens; NCI-H226, NSC lung cancer; one dose 10 μM; read-out: Growth Inhibition Percentage (GI %)
# [19] = system: UO-31; experiment: NCI-60 anticancer screening (SRB); format: cell-based; settings: Homo sapiens; UO-31, renal cancer; one dose 10 μM; read-out: Growth Inhibition Percentage (GI %)
# [20] = system: HL-60(TB); experiment: NCI-60 anticancer screening (SRB); format: cell-based; settings: Homo sapiens, leukemia, one dose 10 μM, read-out: Growth Inhibition Percentage (GI %)
# [21] = system: DU-145; experiment: NCI-60 anticancer screening (SRB); format: cell-based; settings: Homo sapiens; DU-145, prostate cancer; one dose 10 μM; read-out: Growth Inhibition Percentage (GI %)
# [22] = system: SNB-19; experiment: NCI-60 anticancer screening (SRB); format: cell-based; settings: Homo sapiens; SNB-19, CNS cancer; one dose 10 μM; read-out: Growth Inhibition Percentage (GI %)
# [23] = system: MDA-MB-435; experiment: NCI-60 anticancer screening (SRB); format: cell-based; settings: Homo sapiens; MDA-MB-435, melanoma; one dose 10 μM; read-out: Growth Inhibition Percentage (GI %)
# [24] = system: HCC-2998; experiment: NCI-60 anticancer screening (SRB); format: cell-based; settings: Homo sapiens; HCC-2998, colon cancer; one dose 10 μM; read-out: Growth Inhibition Percentage (GI %)
# [25] = system: MDA-MB-231; experiment: NCI-60 anticancer screening (SRB); format: cell-based; settings: Homo sapiens; MDA-MB-231, breast cancer; one dose 10 μM; read-out: Growth Inhibition Percentage (GI %)
# [26] = system: MOLT-4; experiment: NCI-60 anticancer screening (SRB); format: cell-based; settings: Homo sapiens; MOLT-4, leukemia; one dose 10 μM; read-out: Growth Inhibition Percentage (GI %)
# [27] = system: CAKI-1; experiment: NCI-60 anticancer screening (SRB); format: cell-based; settings: Homo sapiens; CAKI-1, renal cancer; one dose 10 μM; read-out: Growth Inhibition Percentage (GI %)
# [28] = system: EKVX; experiment: NCI-60 anticancer screening (SRB); format: cell-based; settings: Homo sapiens, NSC lung cancer, one dose 10 μM, read-out: Growth Inhibition Percentage (GI %)
# [29] = system: HCT-15; experiment: NCI-60 anticancer screening (SRB); format: cell-based; settings: Homo sapiens; HCT-15, colon cancer; one dose 10 μM; read-out: Growth Inhibition Percentage (GI %)
# [30] = system: NCI-H322M; experiment: NCI-60 anticancer screening (SRB); format: cell-based; settings: Homo sapiens, NSC lung cancer, one dose 10 μM, read-out: Growth Inhibition Percentage (GI %)
# [31] = system: MALME-3M; experiment: NCI-60 anticancer screening (SRB); format: cell-based; settings: Homo sapiens, melanoma, one dose 10 μM, read-out: Growth Inhibition Percentage (GI %)
# [32] = system: OVCAR-5; experiment: NCI-60 anticancer screening (SRB); format: cell-based; settings: Homo sapiens; OVCAR-5, ovarian cancer; one dose 10 μM; read-out: Growth Inhibition Percentage (GI %)
Structure (SMILES),melting point,inhibition at 10 µM [1],inhibition at 10 µM [2],inhibition at 10 µM [3],inhibition at 10 µM [4],inhibition at 10 µM [5],inhibition at 10 µM [6],inhibition at 10 µM [7],inhibition at 10 µM [8],inhibition at 10 µM [9],inhibition at 10 µM [10],inhibition at 10 µM [11],inhibition at 10 µM [12],inhibition at 10 µM [13],inhibition at 10 µM [14],inhibition at 10 µM [15],inhibition at 10 µM [16],GI % mean [17],inhibition at 10 µM [18],inhibition at 10 µM [19],other results
"CCOC(=O)C1=C(N)N(c2ccc(C)cc2)C2=C(C(=O)CC(C)(C)C2)C1c1ccccc1Br (racemic) [6e, (±)-Ethyl 2-amino-4–(2-bromophenyl)-7,7-dimethyl-1–(4-methylphenyl)-5-oxo-1,4,5,6,7,8-hexahydroquinoline-3-carboxylate]",236 to 238 °C,15%,32%,< 10%,17%,19%,< 10%,13%,23%,< 10%,37%,< 10%,16%,19%,15%,16%,< 10%,22%,15%,24%,inhibition at 10 µM [20]: 111%; inhibition at 10 µM [21]: < 10%; inhibition at 10 µM [22]: 13%; inhibition at 10 µM [23]: 17%; inhibition at 10 µM [24]: 11%; inhibition at 10 µM [25]: < 10%; inhibition at 10 µM [26]: 71%; inhibition at 10 µM [27]: 30%; inhibition at 10 µM [28]: < 10%; inhibition at 10 µM [29]: 42%; inhibition at 10 µM [30]: < 10%; inhibition at 10 µM [31]: < 10%; inhibition at 10 µM [32]: < 10%
"CCOC(=O)C1=C(N)N(c2ccc(Cl)cc2)C2=C(C(=O)CC(C)(C)C2)C1c1ccccc1Br (racemic) [6f, (±)-Ethyl 2-amino-4–(2-bromophenyl)-1–(4-chlorophenyl)-7,7-dimethyl-5-oxo-1,4,5,6,7,8-hexahydroquinoline-3-carboxylate]",210 to 212 °C,< 10%,43%,< 10%,12%,40%,14%,16%,53%,27%,45%,< 10%,40%,31%,31%,42%,14%,24%,14%,40%,inhibition at 10 µM [20]: 68%; inhibition at 10 µM [21]: < 10%; inhibition at 10 µM [22]: 11%; inhibition at 10 µM [23]: < 10%; inhibition at 10 µM [24]: < 10%; inhibition at 10 µM [25]: 15%; inhibition at 10 µM [26]: < 10%; inhibition at 10 µM [27]: 32%; inhibition at 10 µM [28]: 25%; inhibition at 10 µM [29]: 53%; inhibition at 10 µM [30]: < 10%; inhibition at 10 µM [31]: 18%; inhibition at 10 µM [32]: < 10%
"CCOC(=O)C1=C(N)N(c2ccc(Cl)cc2)C2=C(C(=O)CC(C)(C)C2)C1c1ccccc1OC (racemic) [6i, (±)-Ethyl 2-amino-1–(4-chlorophenyl)-4–(2-methoxyphenyl)-7,7-dimethyl-5-oxo-1,4,5,6,7,8-hexahydroquinoline-3-carboxylate]",228 to 230 °C,15%,43%,< 10%,< 10%,28%,40%,18%,39%,20%,50%,27%,54%,52%,19%,44%,12%,36%,30%,43%,inhibition at 10 µM [20]: 69%; inhibition at 10 µM [21]: < 10%; inhibition at 10 µM [22]: 28%; inhibition at 10 µM [23]: 51%; inhibition at 10 µM [24]: 38%; inhibition at 10 µM [25]: 31%; inhibition at 10 µM [26]: 89%; inhibition at 10 µM [27]: 12%; inhibition at 10 µM [28]: 44%; inhibition at 10 µM [29]: 59%; inhibition at 10 µM [30]: 15%; inhibition at 10 µM [31]: 40%; inhibition at 10 µM [32]: 15%
"CCOC(=O)C1=C(N)N(c2ccc(Cl)cc2)C2=C(C(=O)CC(C)(C)C2)C1c1ccc(F)cc1 (racemic) [8b, (±)-Ethyl 2-amino-1–(4-chlorophenyl)-4–(4-fluoroyphenyl)-7,7-dimethyl-5-oxo-1,4,5,6,7,8-hexahydroquinoline-3-carboxylate]",256 to 258 °C,20%,40%,< 10%,20%,21%,12%,< 10%,17%,13%,13%,< 10%,< 10%,12%,< 10%,11%,13%,14%,< 10%,30%,inhibition at 10 µM [20]: 32%; inhibition at 10 µM [21]: < 10%; inhibition at 10 µM [22]: 22%; inhibition at 10 µM [23]: 11%; inhibition at 10 µM [24]: < 10%; inhibition at 10 µM [25]: 19%; inhibition at 10 µM [26]: < 10%; inhibition at 10 µM [27]: 26%; inhibition at 10 µM [28]: 25%; inhibition at 10 µM [29]: 34%; inhibition at 10 µM [30]: < 10%; inhibition at 10 µM [31]: < 10%; inhibition at 10 µM [32]: < 10%
